{"source": "paper PMC7032088", "about": "(Asian Journal of Pharmaceutical Sciences, 2017)", "test_system": "A549 cells", "test": "Cell viability", "conditions": "24 h, 0.0005–0.1 mg/ml", "data": [{"compound": "CC(C(=O)O)c1cccc(C(=O)c2ccccc2)c1", "note": "(stereo not shown) [Free KTP, Ketoprofen]", "values": [{"measurement": "in vitro cytotoxicity (MTT)", "result": "did not show significant cytotoxicity"}]}]}
